Experimental data: PubChem BioAssay (NCI)
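Interpolation was linear, between the two tested concentrations surrounding the appropriate level; five concentrations were tested over 48 hours in 96-well plates. Definition used: TGI = concentration required for complete inhibition of growth.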

How the values were obtained:
Assay in all cases: NCI tumour cell line growth inhibition, 48 h
786-0 renal = tested on: 786-0 renal
A549 NSCLC = tested on: A549 NSCLC
ACHN renal = tested on: ACHN renal
CAKI-1 renal = tested on: CAKI-1 renal
CCRF-CEM leukemia = tested on: CCRF-CEM leukemia
COLO 205 colon = tested on: COLO 205 colon
DLD-1 colon = tested on: DLD-1 colon
DMS 114 small cell lung = tested on: DMS 114 small cell lung
DMS 273 small cell lung = tested on: DMS 273 small cell lung
EKVX NSCLC = tested on: EKVX NSCLC
HCT-116 colon = tested on: HCT-116 colon
HCT-15 colon = tested on: HCT-15 colon
HL-60(TB) leukemia = tested on: HL-60(TB) leukemia
HOP-18 NSCLC = tested on: HOP-18 NSCLC
HOP-62 NSCLC = tested on: HOP-62 NSCLC
HOP-92 NSCLC = tested on: HOP-92 NSCLC
HT29 colon = tested on: HT29 colon
IGROV1 ovarian = tested on: IGROV1 ovarian
K-562 leukemia = tested on: K-562 leukemia
KM12 colon = tested on: KM12 colon
KM20L2 colon = tested on: KM20L2 colon
LOX IMVI melanoma = tested on: LOX IMVI melanoma
LXFL 529 NSCLC = tested on: LXFL 529 NSCLC
M14 melanoma = tested on: M14 melanoma
M19-MEL melanoma = tested on: M19-MEL melanoma
MALME-3M melanoma = tested on: MALME-3M melanoma
MOLT-4 leukemia = tested on: MOLT-4 leukemia
NCI-H226 lung = tested on: NCI-H226 lung
NCI-H23 lung = tested on: NCI-H23 lung
NCI-H460 lung = tested on: NCI-H460 lung
NCI-H522 lung = tested on: NCI-H522 lung
OVCAR-3 ovarian = tested on: OVCAR-3 ovarian
OVCAR-4 ovarian = tested on: OVCAR-4 ovarian
OVCAR-5 ovarian = tested on: OVCAR-5 ovarian
OVCAR-8 ovarian = tested on: OVCAR-8 ovarian
RPMI-8226 leukemia = tested on: RPMI-8226 leukemia
RXF 393 renal = tested on: RXF 393 renal
RXF-631 renal = tested on: RXF-631 renal
SF-268 CNS = tested on: SF-268 CNS
SF-295 CNS = tested on: SF-295 CNS
SF-539 CNS = tested on: SF-539 CNS
SK-MEL-2 melanoma = tested on: SK-MEL-2 melanoma
SK-MEL-28 melanoma = tested on: SK-MEL-28 melanoma
SK-MEL-5 melanoma = tested on: SK-MEL-5 melanoma
SK-OV-3 ovarian = tested on: SK-OV-3 ovarian
SN12C renal = tested on: SN12C renal
SNB-19 CNS = tested on: SNB-19 CNS
SNB-75 CNS = tested on: SNB-75 CNS
SNB-78 CNS = tested on: SNB-78 CNS
SR leukemia = tested on: SR leukemia
SW-620 colon = tested on: SW-620 colon
TK-10 renal = tested on: TK-10 renal
U251 CNS = tested on: U251 CNS
UACC-257 melanoma = tested on: UACC-257 melanoma
UACC-62 melanoma = tested on: UACC-62 melanoma
UO-31 renal = tested on: UO-31 renal
XF 498 CNS = tested on: XF 498 CNS

## Cc1noc2cccc(OCc3ccccc3)c12
786-0 renal
  TGI: > 100 µM
A549 NSCLC
  TGI: > 100 µM
ACHN renal
  TGI: > 100 µM
CAKI-1 renal
  TGI: > 100 µM
CCRF-CEM leukemia
  TGI: > 100 µM
COLO 205 colon
  TGI: > 100 µM
DLD-1 colon
  TGI: > 100 µM
DMS 114 small cell lung
  TGI: > 100 µM
DMS 273 small cell lung
  TGI: > 100 µM
EKVX NSCLC
  TGI: > 100 µM
HCT-116 colon
  TGI: > 100 µM
HCT-15 colon
  TGI: > 100 µM
HL-60(TB) leukemia
  TGI: > 100 µM
HOP-18 NSCLC
  TGI: > 100 µM
HOP-62 NSCLC
  TGI: > 100 µM
HOP-92 NSCLC
  TGI: > 100 µM
HT29 colon
  TGI: > 100 µM
IGROV1 ovarian
  TGI: > 100 µM
K-562 leukemia
  TGI: > 100 µM
KM12 colon
  TGI: > 100 µM
KM20L2 colon
  TGI: > 100 µM
LOX IMVI melanoma
  TGI: > 100 µM
LXFL 529 NSCLC
  TGI: > 100 µM
M14 melanoma
  TGI: > 100 µM
M19-MEL melanoma
  TGI: > 100 µM
MALME-3M melanoma
  TGI: > 100 µM
MOLT-4 leukemia
  TGI: > 100 µM
NCI-H226 lung
  TGI: > 100 µM
NCI-H23 lung
  TGI: > 100 µM
NCI-H460 lung
  TGI: > 100 µM
NCI-H522 lung
  TGI: > 100 µM
OVCAR-3 ovarian
  TGI: > 100 µM
OVCAR-4 ovarian
  TGI: > 100 µM
OVCAR-5 ovarian
  TGI: > 100 µM
OVCAR-8 ovarian
  TGI: > 100 µM
RPMI-8226 leukemia
  TGI: > 100 µM
RXF 393 renal
  TGI: > 100 µM
RXF-631 renal
  TGI: > 100 µM
SF-268 CNS
  TGI: > 100 µM
SF-295 CNS
  TGI: > 100 µM
SF-539 CNS
  TGI: > 100 µM
SK-MEL-2 melanoma
  TGI: 94.5 µM
SK-MEL-28 melanoma
  TGI: > 100 µM
SK-MEL-5 melanoma
  TGI: 41.5 µM
SK-OV-3 ovarian
  TGI: > 100 µM
SN12C renal
  TGI: > 100 µM
SNB-19 CNS
  TGI: > 100 µM
SNB-75 CNS
  TGI: 87.6 µM
SNB-78 CNS
  TGI: > 100 µM
SR leukemia
  TGI: > 100 µM
SW-620 colon
  TGI: > 100 µM
TK-10 renal
  TGI: > 100 µM
U251 CNS
  TGI: > 100 µM
UACC-257 melanoma
  TGI: > 100 µM
UACC-62 melanoma
  TGI: > 100 µM
UO-31 renal
  TGI: > 100 µM
XF 498 CNS
  TGI: > 100 µM
